# Laboratory results taken from US10183943B2, “Heterocyclic compounds and their use in preventing or treating bacterial infections” (MUTABILIS, priority 2015, dated 2019).
# What was measured:
# SHV-1 = biological target: T1, SHV-1 (Klebsiella pneumoniae, UniProt P0AD64); assay: β-lactamase inhibitory activity, determination of IC50 (nitrocefin hydrolysis); type: biochemical; settings: class (A); nitrocefin 200 μM, 30 min pre-incubation; read-out: IC50 β-lactamase SHV-1
# T1 construct: made in house; host or cells: E. coli
# KPC-2 = biological target: T2, KPC-2 (Klebsiella pneumoniae, UniProt Q9F663); assay: as above; type: biochemical; settings: class (A); nitrocefin 200 μM, 30 min pre-incubation; read-out: IC50 β-lactamase KPC-2
# T2 construct: made in house; host or cells: E. coli
# [1] = biological target: CMY-37 (Citrobacter freundii); assay: as above; type: biochemical; settings: class (C); nitrocefin 200 μM, 30 min pre-incubation
# [2] = system: E. coli 190317 (TEM-1, SHV-12, CTX-M-15, OXA-1); assay: microbe, parasite or virus in culture; type: cell-based; settings: strain 190317
# Description: (§1) Method 2: MIC of Compounds and Synergy with Ceftazidime Against Bacterial Isolates (Table 2 and 3)
# (§2) Compounds of the present invention were assessed against genotyped bacterial strains alone or in combination with the β-lactam ceftazidime (CAZ). In the assays, MICs of said compounds, or of ceftazidime at fixed concentrations of said compounds were determined by the broth microdilution method according to the Clinical Laboratory Standards Institute (CLSI-M7-A7). Briefly, compounds alone according to the invention were prepared in DMSO and spotted (2 μL each) on sterile polystyrene plates (Corning, 3788). Compounds and ceftazidime dilutions were prepared in DMSO and spotted (1 μL each) on sterile polystyrene plates (Corning, 3788). Log phase bacterial suspensions were adjusted to a final density of 5×10^5 cfu/mL in cation-adjusted Mueller-Hinton broth (Becton-Dickinson) and added to each well (98 μL). Microplates were incubated for 16-20 h at 35° C. in ambient air. The MIC of the compounds was defined as the lowest concentration of said compounds that prevented bacterial growth as read by visual inspection. The MIC of ceftazidime at each compound concentration was defined as the lowest concentration of ceftazidime that prevented bacterial growth as read by visual inspection.
# OXA-48 = biological target: T3, OXA-48 (Klebsiella pneumoniae, UniProt Q6XEC0); assay: β-lactamase inhibitory activity, determination of IC50 (nitrocefin hydrolysis); type: biochemical; settings: class (D); nitrocefin 200 μM, 30 min pre-incubation; read-out: IC50 β-lactamase OXA-48
# T3 construct: made in house; host or cells: E. coli
# AmpC P. aeruginosa = AmpC P. aeruginosa (Pseudomonas aeruginosa, UniProt P24735); assay: as above; settings: read-out: IC50 β-lactamase AmpC (PAE); class (C); nitrocefin 200 μM, 30 min pre-incubation
# E. cloacae P99 (AmpC) [3] = assay: MIC of compounds alone, broth microdilution; type: cell-based; settings: strain P99 (E. cloacae)
# Procedure, shortened: (§3)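 Read-out: lowest compound concentration with no growth by visual inspection. CLSI M7-A7 broth microdilution, cation-adjusted Mueller-Hinton broth, inoculum 5×10^5 cfu/mL from log-phase culture, 16-20 h, 35° C, ambient air; compound tested without β-lactam.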
# E. coli RGN238 (OXA-1) [4] = assay: MIC of compounds alone, broth microdilution; type: cell-based; settings: strain RGN238 (E. coli)
# Procedure, shortened: as §3
# [5] = system: E. coli 190317 (TEM-1, SHV-12, CTX-M-15, OXA-1); assay: MIC of compounds alone, broth microdilution; type: cell-based; settings: strain 190317 (E. coli)
# Procedure, shortened: as §3
# [6] = system: E. coli 131119 (TEM-1, OXA-48); assay: MIC of compounds alone, broth microdilution; type: cell-based; settings: strain 131119 (E. coli)
# Procedure, shortened: as §3
# [7] = system: P. aeruginosa CIP107051 (TEM-24); assay: MIC of compounds alone, broth microdilution; type: cell-based; settings: strain CIP107051 (P. aeruginosa)
# Procedure, shortened: as §3
# [8] = system: K. pneumoniae 6299 (TEM-1, SHV-11, OXA-163); assay: MIC of compounds alone, broth microdilution; type: cell-based; settings: strain 6299 (K. pneumoniae)
# Procedure, shortened: as §3
# [9] = system: K. pneumoniae BAA-1898 (TEM-1, SHV-11, SHV-12, KPC-2); assay: MIC of compounds alone, broth microdilution; type: cell-based; settings: strain BAA-1898 (K. pneumoniae)
# Procedure, shortened: as §3
# TEM-1 = biological target: T4, TEM-1 (Escherichia coli, UniProt P62593); assay: β-lactamase inhibitory activity, determination of IC50 (nitrocefin hydrolysis); type: biochemical; settings: class (A); nitrocefin 200 μM, 30 min pre-incubation; read-out: IC50 β-lactamase TEM-1
# T4 construct: made in house; host or cells: E. coli
# OXA-1 = biological target: T5, OXA-1 (Escherichia coli, UniProt P13661); assay: as above; type: biochemical; settings: class (D); nitrocefin 200 μM, 30 min pre-incubation; read-out: IC50 β-lactamase OXA-1
# T5 construct: made in house; host or cells: E. coli
# AmpC (P99) = AmpC (P99) (Enterobacter cloacae, UniProt P05364); assay: as above; settings: read-out: IC50 β-lactamase AmpC (P99); class (C); nitrocefin 200 μM, 30 min pre-incubation
# CTX-M-15 = biological target: T6, CTX-M-15 (Escherichia coli, UniProt Q9EXV5); assay: as above; type: biochemical; settings: class (A); nitrocefin 200 μM, 30 min pre-incubation; read-out: IC50 β-lactamase CTX-M-15
# T6 construct: made in house; host or cells: E. coli
# OXA-11 = biological target: T7, OXA-11 (Pseudomonas aeruginosa, UniProt Q06778); assay: as above; type: biochemical; settings: class (D); nitrocefin 200 μM, 30 min pre-incubation; read-out: IC50 β-lactamase OXA-11
# T7 construct: made in house; host or cells: E. coli
# E. cloacae P99 (AmpC) [10] = assay: MIC of ceftazidime (CAZ) in combination with compounds at 4 μg/mL, broth microdilution; type: cell-based; settings: strain P99
# Description: as §1, §2
# [11] = system: P. aeruginosa CIP107051 (TEM-24); assay: as above; type: cell-based; settings: strain CIP107051
# Description: as §1, §2
# [12] = system: K. pneumoniae 6299 (TEM-1, SHV-11, OXA-163); assay: as above; type: cell-based; settings: strain 6299
# Description: as §1, §2
# [13] = system: K. pneumoniae BAA-1898 (TEM-1, SHV-11, SHV-12, KPC-2); assay: as above; type: cell-based; settings: strain BAA-1898
# Description: as §1, §2
# OXA-15 = biological target: T8, OXA-15 (Pseudomonas aeruginosa, UniProt Q51574); assay: biochemical; settings: class (D); nitrocefin 200 μM, 30 min pre-incubation; read-out: IC50 β-lactamase OXA-15
# T8 construct: made in house; host or cells: E. coli
# [14] = system: K. pneumoniae UFR68 (TEM-1, SHV-11, CTX-M-15, KPC-3); assay: microbe, parasite or virus in culture; type: cell-based; settings: Klebsiella pneumoniae, read-out: MIC of CAZ
# Description: as §1, §2
# [15] = system: K. pneumoniae UFR39 (CTX-M-15, NDM-1); assay: MIC of ceftazidime (CAZ) in combination with compounds at 4 μg/mL, broth microdilution; type: cell-based; settings: Klebsiella pneumoniae; strain UFR39; CAZ alone, no compound
# Description: as §1, §2
# [16] = system: E. coli UFR18 (CTX-M-15, OXA-204); assay: as above; type: cell-based; settings: Escherichia coli, read-out: MIC of CAZ
# Description: as §1, §2
# [17] = system: K. pneumoniae UFR77 (CMY-2); assay: as above; type: cell-based; settings: Klebsiella pneumoniae; strain UFR77; CAZ alone, no compound
# Description: as §1, §2
# E. coli RGN238 (OXA-1) [18] = assay: as above; type: cell-based; settings: Escherichia coli; strain RGN238; CAZ alone, no compound
# Description: as §1, §2
# [19] = system: K. pneumoniae 160143 (TEM-1, SHV-1, CTX-M-15, KPC-2, OXA-1); assay: as above; type: cell-based; settings: Klebsiella pneumoniae; strain 160143; CAZ alone, no compound
# Description: as §1, §2
# [20] = system: K. pneumoniae 200047 (TEM-1, SHV-32, CTX-M-15, OXA-1); assay: as above; type: cell-based; settings: Klebsiella pneumoniae; strain 200047; CAZ alone, no compound
# Description: as §1, §2
# [21] = system: E. coli UFR61O (TEM-1, KPC-2); assay: as above; type: cell-based; settings: Escherichia coli; strain UFR61O; CAZ alone, no compound
# Description: as §1, §2
# [22] = system: E. coli UFR74 (SHV-1, DHA-1); assay: as above; type: cell-based; settings: Escherichia coli; strain UFR74; CAZ alone, no compound
# Description: as §1, §2
# [23] = system: E. cloacae UFR85 (TEM-1, CTX-M-15, AmpC); assay: as above; type: cell-based; settings: Enterobacter cloacae; strain UFR85; CAZ alone, no compound
# Description: as §1, §2
# [24] = system: K. oxytoca UFR21 (TEM-1, CTX-M-15, OXA-48); assay: as above; type: cell-based; settings: Klebsiella oxytoca; strain UFR21; CAZ alone, no compound
# Description: as §1, §2
# [25] = system: E. coli UFR41 (TEM-1, CTX-M-15, CMY-2, OXA-1, NDM-4); assay: as above; type: cell-based; settings: Escherichia coli, read-out: MIC of CAZ
# Description: as §1, §2
# [26] = system: E. coli 131119 (TEM-1, OXA-48); assay: as above; type: cell-based; settings: Escherichia coli; strain 131119; CAZ alone, no compound
# Description: as §1, §2
# [27] = system: E. cloacae 260508 (TEM-1, CTX-M-15); assay: as above; type: cell-based; settings: Enterobacter cloacae; strain 260508; CAZ alone, no compound
# Description: as §1, §2
# [28] = system: K. pneumoniae UFR24 (TEM-1, SHV-2, SHV-11, OXA-1, OXA-48, OXA-47); assay: as above; type: cell-based; settings: Klebsiella pneumoniae, read-out: MIC of CAZ
# Description: as §1, §2
# [29] = system: E. coli UFR32 (TEM-1, VEB-1, OXA-10); assay: as above; type: cell-based; settings: Escherichia coli, read-out: MIC of CAZ
# Description: as §1, §2
# [30] = system: E. cloacae UFR51 (SHV-12, IMP-8); assay: as above; type: cell-based; settings: Enterobacter cloacae, read-out: MIC of CAZ
# Description: as §1, §2
# [31] = system: E. cloacae UFR70 (TEM-1, CTX-M-15, CMY-2, OXA-1, Porin loss); assay: as above; type: cell-based; settings: Enterobacter cloacae, read-out: MIC of CAZ
# Description: as §1, §2
# [32] = MIC of CAZ with compound fixed at 4 μg/mL
# T5 sequence (P13661 26-276): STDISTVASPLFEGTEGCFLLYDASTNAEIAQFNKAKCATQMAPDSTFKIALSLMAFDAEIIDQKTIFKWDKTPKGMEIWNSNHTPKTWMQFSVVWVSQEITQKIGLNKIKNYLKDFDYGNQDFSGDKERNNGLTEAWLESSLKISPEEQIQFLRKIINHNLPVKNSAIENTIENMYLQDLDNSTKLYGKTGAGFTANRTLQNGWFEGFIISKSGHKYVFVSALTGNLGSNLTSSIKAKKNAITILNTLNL
# Sequence of AmpC P. aeruginosa (P24735 27-397): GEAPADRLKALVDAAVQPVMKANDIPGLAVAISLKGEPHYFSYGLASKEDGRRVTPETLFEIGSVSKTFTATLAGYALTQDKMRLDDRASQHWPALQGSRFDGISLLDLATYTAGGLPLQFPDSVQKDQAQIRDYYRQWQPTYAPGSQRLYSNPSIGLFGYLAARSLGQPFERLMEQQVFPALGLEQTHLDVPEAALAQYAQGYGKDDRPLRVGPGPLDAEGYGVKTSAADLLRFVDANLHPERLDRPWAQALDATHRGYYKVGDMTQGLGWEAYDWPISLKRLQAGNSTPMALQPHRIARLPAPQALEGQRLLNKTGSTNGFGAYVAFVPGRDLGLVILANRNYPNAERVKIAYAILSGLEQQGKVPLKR
# Sequence of CMY-37 (Citrobacter freundii) (A0A9R8 21-381): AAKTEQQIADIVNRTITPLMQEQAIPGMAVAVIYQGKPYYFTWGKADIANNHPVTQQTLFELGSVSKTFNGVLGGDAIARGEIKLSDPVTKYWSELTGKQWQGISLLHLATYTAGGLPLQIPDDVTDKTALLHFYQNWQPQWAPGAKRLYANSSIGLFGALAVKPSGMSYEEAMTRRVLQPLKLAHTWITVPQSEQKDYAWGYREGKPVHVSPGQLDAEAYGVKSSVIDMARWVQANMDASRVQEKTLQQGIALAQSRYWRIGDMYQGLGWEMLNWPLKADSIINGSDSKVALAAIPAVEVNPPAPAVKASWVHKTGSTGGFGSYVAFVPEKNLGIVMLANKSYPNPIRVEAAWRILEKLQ
# T2 sequence (Q9F663 25-293 limits assumed): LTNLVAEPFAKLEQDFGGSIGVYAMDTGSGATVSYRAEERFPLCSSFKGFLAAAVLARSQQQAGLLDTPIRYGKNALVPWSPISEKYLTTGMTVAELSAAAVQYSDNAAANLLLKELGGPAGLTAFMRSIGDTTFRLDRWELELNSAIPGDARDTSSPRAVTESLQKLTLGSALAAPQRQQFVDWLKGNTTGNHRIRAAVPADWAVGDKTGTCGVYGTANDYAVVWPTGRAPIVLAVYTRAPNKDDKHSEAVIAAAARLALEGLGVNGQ
# T3 sequence (Q6XEC0 23-265 limits assumed): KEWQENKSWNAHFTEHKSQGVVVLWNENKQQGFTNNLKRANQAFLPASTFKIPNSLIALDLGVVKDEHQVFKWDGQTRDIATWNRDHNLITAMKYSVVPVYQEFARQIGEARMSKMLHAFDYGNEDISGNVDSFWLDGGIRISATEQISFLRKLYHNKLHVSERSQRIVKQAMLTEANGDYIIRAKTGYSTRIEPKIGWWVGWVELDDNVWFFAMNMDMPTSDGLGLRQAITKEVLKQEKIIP
# T6 sequence (Q9EXV5 entry or part of it): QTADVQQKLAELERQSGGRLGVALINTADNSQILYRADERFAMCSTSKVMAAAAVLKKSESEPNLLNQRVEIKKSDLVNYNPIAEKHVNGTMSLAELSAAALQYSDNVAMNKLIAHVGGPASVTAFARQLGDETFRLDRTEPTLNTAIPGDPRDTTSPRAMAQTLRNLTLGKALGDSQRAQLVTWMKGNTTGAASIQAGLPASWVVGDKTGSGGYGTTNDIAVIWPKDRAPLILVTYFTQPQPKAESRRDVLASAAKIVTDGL
# T8 sequence (Q51574 22-275): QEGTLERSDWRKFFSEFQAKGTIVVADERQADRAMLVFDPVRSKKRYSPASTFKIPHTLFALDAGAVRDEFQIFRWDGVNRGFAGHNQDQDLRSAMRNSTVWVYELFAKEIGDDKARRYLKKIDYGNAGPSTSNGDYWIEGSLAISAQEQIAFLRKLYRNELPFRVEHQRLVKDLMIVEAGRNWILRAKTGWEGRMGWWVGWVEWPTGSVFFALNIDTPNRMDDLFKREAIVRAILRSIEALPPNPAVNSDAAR
# T1 sequence (P0AD64 22-286): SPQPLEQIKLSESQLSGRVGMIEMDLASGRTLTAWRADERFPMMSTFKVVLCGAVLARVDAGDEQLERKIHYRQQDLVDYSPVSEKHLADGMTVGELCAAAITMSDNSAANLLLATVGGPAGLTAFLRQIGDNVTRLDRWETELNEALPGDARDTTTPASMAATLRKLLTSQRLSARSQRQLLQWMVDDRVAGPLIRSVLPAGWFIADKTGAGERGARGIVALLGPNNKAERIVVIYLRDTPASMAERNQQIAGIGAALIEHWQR
# T4 sequence (P62593 24-286 limits assumed): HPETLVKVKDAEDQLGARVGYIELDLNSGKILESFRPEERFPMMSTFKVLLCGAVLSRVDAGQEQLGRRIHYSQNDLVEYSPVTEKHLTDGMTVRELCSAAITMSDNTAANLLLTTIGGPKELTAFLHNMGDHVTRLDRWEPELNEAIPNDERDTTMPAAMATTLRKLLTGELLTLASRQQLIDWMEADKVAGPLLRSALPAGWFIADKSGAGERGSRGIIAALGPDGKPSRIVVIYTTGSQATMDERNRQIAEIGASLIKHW
# Sequence of AmpC (P99) (P05364 21-381): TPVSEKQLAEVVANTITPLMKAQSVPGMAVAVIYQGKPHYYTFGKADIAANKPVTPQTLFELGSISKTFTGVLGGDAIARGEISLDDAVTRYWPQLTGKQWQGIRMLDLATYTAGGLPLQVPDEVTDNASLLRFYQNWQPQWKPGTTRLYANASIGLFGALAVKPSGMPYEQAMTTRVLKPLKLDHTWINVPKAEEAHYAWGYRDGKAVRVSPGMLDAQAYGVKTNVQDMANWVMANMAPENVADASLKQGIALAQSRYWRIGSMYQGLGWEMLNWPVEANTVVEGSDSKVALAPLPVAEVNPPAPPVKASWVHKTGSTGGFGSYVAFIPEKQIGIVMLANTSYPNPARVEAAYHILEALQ
# T7 sequence (Q06778 21-266): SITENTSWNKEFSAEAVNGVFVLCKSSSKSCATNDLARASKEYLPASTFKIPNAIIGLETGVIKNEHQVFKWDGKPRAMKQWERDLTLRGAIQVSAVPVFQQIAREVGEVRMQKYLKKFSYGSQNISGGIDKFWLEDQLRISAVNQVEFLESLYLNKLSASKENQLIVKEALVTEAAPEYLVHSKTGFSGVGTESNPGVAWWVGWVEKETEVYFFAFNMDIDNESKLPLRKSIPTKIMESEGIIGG
smiles,measurement,setting,value
"COC(=O)c1ncsc1C1=CCN2CC1N(OS(=O)(=O)[O-])C2=O.[Na+] (stereo not shown) [Example 22, Sodium [4-(4-(2-methoxy-2-oxo-methyl)-thiazol-5-yl)-7-oxo-1,6-diazabicyclo[3.2.1]oct-3-en-6-yl] sulfate]",IC50,SHV-1,19 nM
same,IC50,KPC-2,340 nM
same,IC50,[1],84 nM
same,MIC combination of CAZ and compounds of the invention at 4 μg/mL,[2]; [32],16 µg/mL
same,IC50,OXA-48,3.9 nM
same,IC50,AmpC P. aeruginosa,5500 nM
same,MIC compounds of the invention alone,E. cloacae P99 (AmpC) [3],>32 µg/mL
same,MIC compounds of the invention alone,E. coli RGN238 (OXA-1) [4],>32 µg/mL
same,MIC compounds of the invention alone,[5],>32 µg/mL
same,MIC compounds of the invention alone,[6],>32 µg/mL
same,MIC compounds of the invention alone,[7],>32 µg/mL
same,MIC compounds of the invention alone,[8],>32 µg/mL
same,MIC compounds of the invention alone,[9],>32 µg/mL
same,IC50,TEM-1,5 nM
same,IC50,OXA-1,68 nM
same,IC50,AmpC (P99),160 nM
same,IC50,CTX-M-15,6.5 nM
same,IC50,OXA-11,370 nM
same,MIC combination of CAZ and compounds of the invention at 4 μg/mL,E. cloacae P99 (AmpC) [10]; [32],128 µg/mL
same,MIC combination of CAZ and compounds of the invention at 4 μg/mL,[11]; [32],>128 µg/mL
same,MIC combination of CAZ and compounds of the invention at 4 μg/mL,[12]; [32],128 µg/mL
same,MIC combination of CAZ and compounds of the invention at 4 μg/mL,[13]; [32],128 µg/mL
same,IC50,OXA-15,12 nM
CC(C)(O/N=C(\C(=O)N[C@@H]1C(=O)N2C(C(=O)[O-])=C(C[n+]3ccccc3)CS[C@H]12)c1csc(N)n1)C(=O)O [ceftazidime],MIC,[14],> 128 µg/mL
same,MIC,"[2]; Escherichia coli, CAZ alone, no compound",128 µg/mL
same,MIC,"E. cloacae P99 (AmpC) [10]; Enterobacter cloacae, CAZ alone, no compound",128 µg/mL
same,MIC,[15],> 1020 µg/mL
same,MIC,[16],> 128 µg/mL
same,MIC,[17],64 µg/mL
same,MIC,E. coli RGN238 (OXA-1) [18],0.5 µg/mL
same,MIC,[19],128 µg/mL
same,MIC,[20],128 µg/mL
same,MIC,[21],128 µg/mL
same,MIC,[22],64 µg/mL
same,MIC,[23],128 µg/mL
same,MIC,[24],128 µg/mL
same,MIC,[25],> 128 µg/mL
same,MIC,[26],0.5 µg/mL
same,MIC,"[11]; Pseudomonas aeruginosa, CAZ alone, no compound",256 µg/mL
same,MIC,[27],128 µg/mL
same,MIC,[28],> 128 µg/mL
same,MIC,[29],> 128 µg/mL
same,MIC,[30],> 128 µg/mL
same,MIC,[31],> 128 µg/mL
same,MIC,"[12]; Klebsiella pneumoniae, CAZ alone, no compound",256 µg/mL
same,MIC,"[13]; Klebsiella pneumoniae, BAA1898, CAZ alone, no compound",256 µg/mL
